{"source": "paper PMC11788587", "about": "“Validating Low‐Dose Iohexol as a Marker for Glomerular Filtration Rate by In Vitro and In Vivo Studies” (Clinical and Translational Science, 2025)", "key": {"[1]": {"assay": "Clinical trial in healthy volunteers, adverse events", "assay_type": "in vivo, human", "conditions": "12 healthy subjects, single i.v. doses 259 mg and 3235 mg", "experimental": "The trial had two separate objectives, that is, (i) to assess dose linearity of iohexol pharmacokinetics for a lower dose (reported here) and (ii) to improve the assessment of creatinine volume of distribution by oral administration of creatinine in beef meat (will be reported separately). Building on the PK findings from a 3235 mg iohexol injection, we determined that the current quantification method is sufficiently sensitive to measure iohexol plasma concentrations corresponding to doses over 10 times lower, up to at least 20 h postadministration. Therefore, a 259 mg iohexol dose was selected for this study. […] Each participant was randomly assigned to one of six sequences, receiving iohexol intravenously at different single doses on separate occasions: (1) 259 mg iohexol without beef ingestion (defined as “fasting,” “test”); (2) 3235 mg iohexol fasting (“reference”); and (3) 3235 mg iohexol with beef ingestion (not reported here). The washout interval between administrations was 7 to 14 days. Adverse events were surveyed until the completion of the study.\nAdverse events were monitored at multiple time points: within 1 hour before the administration of iohexol, and then at 10 minutes, 30 minutes, 1 hour, and 2 hours post-dose, as well as at the end of hospitalization for each period and during the end-of-study evaluation. Vital signs were recorded at the same time points as adverse events. Overall health was reassessed at the end of the study."}, "[2]": {"system": "hOAT1/3, hOCT1/2, hMATE1/2K, hOATP1B1/3, and hMDR1", "assay": "Inhibition assays, summary across all transporters", "assay_type": "cell-based, human", "from_the_text": "We characterized the inhibitory potential of iohexol on major drug transporters recommended by regulatory agencies, which were previously assessed in a clinical transporter phenotyping cocktail study. These transporters include hOAT1, hOAT3, hOCT1, hOCT2, hMATE1, hMATE2K, human organic anion transporter polypeptides (hOATP)1B1, hOATP1B3, and human multidrug resistance protein (hMDR)1. Additionally, we investigated whether iohexol is a substrate for any of the renal transporters among these, including hOAT1/3, hOCT1/2, and hMATE1/2K. Cell‐based uptake assays were used to assess the activities of hOAT1/3, hOCT1/2, hMATE1/2K, and hOATP1B1/1B3. Inside‐out membrane vesicle uptake assays were used to evaluate the activity of hMDR1.\nTo determine the maximal inhibitory potential of iohexol, intracellular accumulation of a standard substrate was measured with and without the clinically relevant highest concentrations of iohexol. Control inhibitors were tested in each experiment.\nAccording to guidelines for assessing TDDIs after intravenous administration, the highest test concentration should be up to 50 times the unbound maximal plasma concentration (Cmax). […]\nIn all subsequent in vitro studies, control experiments were conducted to validate the results. […] Each condition, including cells or vesicles with the transporter and their respective controls, was analyzed in at least three replicates. […]"}}, "data": [{"compound": "CC(=O)N(CC(O)CO)c1c(I)c(C(=O)NCC(O)CO)c(I)c(C(=O)NCC(O)CO)c1I", "note": "(centres unmarked) [iohexol]", "values": [{"measurement": "Adverse events related to iohexol", "setting": "[1]", "result": "None of these were related to iohexol"}, {"measurement": "Number of adverse events reported", "setting": "[1]", "result": 9}, {"measurement": "Subjects reporting adverse events", "setting": "[1]", "result": "7 of 12"}, {"measurement": "Inhibitor of the transporters (conclusion)", "setting": "[2]; in vitro, 1–20 mM iohexol", "result": "neither a substrate nor a significant inhibitor"}, {"measurement": "Inhibitory effect on transporter-mediated uptake of standard substrates", "setting": "[2]; iohexol 1 mM and 2 mM", "result": "no significant inhibitory effect"}]}]}
